Columns and labels:
High renin plasma = biological target: T1, High renin plasma (Canis lupus familiaris, UniProt Q6DYE7); experiment: Renin-inhibitory activity, Method II (high renin plasma of dog, inhibition of Angiotensin I formation); format: biochemical; conditions: Table 2; 37°C, 4 hours, 1.25 mg/ml; read-out: Rate of inhibiting the formation of Angiotensin I determined by Method II
T1 construct: High renin plasma prepared by constriction of the renal artery of a dog anesthetized with Nembutal; from tissue; host or cells: plasma of a dog with constricted renal artery
T1 sequence (Q6DYE7 66-403): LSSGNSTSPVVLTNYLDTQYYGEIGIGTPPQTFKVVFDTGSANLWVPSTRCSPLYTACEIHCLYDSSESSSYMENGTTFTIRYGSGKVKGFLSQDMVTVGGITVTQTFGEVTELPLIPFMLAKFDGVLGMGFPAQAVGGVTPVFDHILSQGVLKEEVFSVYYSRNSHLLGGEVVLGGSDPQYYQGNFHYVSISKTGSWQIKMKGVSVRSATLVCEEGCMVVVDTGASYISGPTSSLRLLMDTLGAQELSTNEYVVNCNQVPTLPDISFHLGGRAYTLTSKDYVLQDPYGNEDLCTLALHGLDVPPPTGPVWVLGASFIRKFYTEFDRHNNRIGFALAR
Experimental: High renin plasma prepared by constriction of the renal artery of a dog anesthetized with Nembutal (the plasma which when incubated at 37°40 C. for 6 hours, yields 30 to […]. of Angiotensin I) was incubated at 37° C. for 2 to 6 hours in the same way as in Method I, and also under the same conditions in the presence of 1.25 mg/ml. of each of the test compounds.
(§1) The results are shown in Table 1 (the rate of inhibiting the formation of Angiotensin I, as determined by Method I, when the plasma was incubated at 37° C. for 2, 4 and 6 hours respectively), and Table 2 (the rate of inhibiting the formation of Angiotensin I when the plasma was incubated at 37° C. for 4 hours, with the compound concentration of 1.25 mg/ml.)

renal hypertensive rats [1] = experiment: Antihypertensive activity in renal hypertensive rats, i.m. (Table 3); format: in vivo, rat; conditions: 30 mg/kg/day i.m.
Experimental: (§2) An aqueous solution or suspension in peanut oil of each test compound as administered intramuscularly (i.m.) or orally (p.o.) at a dose of 30 to 100 mg/kg (body weight)/day once every morning over the period of 6 to 7 days.
(§3) The blood pressure of each rat was measured daily before and 5 hours after each administration. Furthermore, the blood pressure was measured every morning after drug withdrawal over a period of 3 to 6 days.
(§4) Test compounds (1)-(4) decreased the blood pressure of renal hypertensive rats with a dose of 30 mg/kg/day i.m.. […] The antihypertensive rats with a dose of 100 mg/kg/day p.o..

Renin = biological target: T2, Renin (Homo sapiens, UniProt P00797); experiment: Renin-inhibitory activity, Method I (inhibition of Angiotensin I formation, RIA); format: biochemical; conditions: Table 2; 37°C, 4 hours, 1.25 mg/ml; read-out: Rate of inhibiting the formation of Angiotensin I determined by Method I
T2 sequence (P00797 67-406): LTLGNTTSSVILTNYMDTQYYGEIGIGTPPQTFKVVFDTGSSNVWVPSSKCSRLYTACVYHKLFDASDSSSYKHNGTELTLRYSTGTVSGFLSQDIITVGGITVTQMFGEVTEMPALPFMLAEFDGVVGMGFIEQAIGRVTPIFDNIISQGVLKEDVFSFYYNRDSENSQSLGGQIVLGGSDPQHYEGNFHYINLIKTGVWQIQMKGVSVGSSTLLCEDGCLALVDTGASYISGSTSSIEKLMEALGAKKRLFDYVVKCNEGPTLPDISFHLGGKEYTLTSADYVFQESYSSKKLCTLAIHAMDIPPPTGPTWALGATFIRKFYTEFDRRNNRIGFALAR
Experimental: Renin (see E. Haas et al. Circulation Research, Vol. 19, p. 739, 1966 and Vol. 31, p. 65, 1972) was incubated in Angiotensinogen at 37° C. for 2 to 6 hours. Similarly, renin was incubated under the same conditions in the presence of 0.313 to 2.5 mg/ml. of each of the test compounds listed above. The amount of Angiotensin I was measured by radioimmunoassay (RIA) (E. Haber et al., J. Clin. Endocrinol., Vol. 29, p. 1349, 1969), and made the renin activity.
as §1

renal hypertensive rats [2] = experiment: Antihypertensive activity in rats, p.o. (Table 4); format: in vivo, rat; conditions: 100 mg/kg/day p.o.
Experimental: as §2, §3, §4

[3] = 1st day, 0 h (immediately before administration)
[4] = 1st day, 5 hours after administration
[5] = 2nd day, 0 h (immediately before administration)
[6] = 2nd day, 5 hours after administration
[7] = 3rd day, 0 h (immediately before administration)
[8] = 3rd day, 5 hours after administration
[9] = 4th day, 0 h (immediately before administration)
[10] = 4th day, 5 hours after administration
[11] = 5th day, 0 h (immediately before administration)
[12] = 5th day, 5 hours after administration
[13] = 6th day, 0 h (immediately before administration)
[14] = 6th day, 5 hours after administration
[15] = 7th day, 0 h (immediately before administration)
[16] = 7th day, 5 hours after administration

inhibition at 1250 µg/mL (High renin plasma) [%] | inhibition at 1250 µg/mL (Renin) [%] | Compound | Changes of blood pressure after drug withdrawal (renal hypertensive rats [1]; 1st day after withdrawal) [mmHg] | Changes of blood pressure (renal hypertensive rats [1]; [3]) [mmHg] | Changes of blood pressure (renal hypertensive rats [1]; [4]) [mmHg] | Changes of blood pressure after drug withdrawal (renal hypertensive rats [1]; 2nd day after withdrawal) [mmHg] | Changes of blood pressure (renal hypertensive rats [1]; [5]) [mmHg] | Changes of blood pressure (renal hypertensive rats [1]; [6]) [mmHg] | Changes of blood pressure after drug withdrawal (renal hypertensive rats [1]; 3rd day after withdrawal) [mmHg] | Changes of blood pressure (renal hypertensive rats [1]; [7]) [mmHg] | Changes of blood pressure (renal hypertensive rats [1]; [8]) [mmHg] | Changes of blood pressure (renal hypertensive rats [1]; [9]) [mmHg] | Changes of blood pressure (renal hypertensive rats [1]; [10]) [mmHg] | Changes of blood pressure (renal hypertensive rats [1]; [11]) [mmHg] | Changes of blood pressure (renal hypertensive rats [1]; [12]) [mmHg] | Changes of blood pressure (renal hypertensive rats [1]; [13]) [mmHg] | Changes of blood pressure (renal hypertensive rats [1]; [14]) [mmHg] | Changes of blood pressure after drug withdrawal (renal hypertensive rats [2]; 1st day after withdrawal) [mmHg] | Changes of blood pressure (renal hypertensive rats [2]; [3]) [mmHg] | Changes of blood pressure (renal hypertensive rats [2]; [4]) | further results
50 | 61 | CCC=CCC=CCC=CCCCCCCCC(=O)NCCOP(=O)(O)OCCN [(1), 2-(Octadeca-9,12,15-trienoylamino)ethylphosphoryl ethanolamine] | -21 | 0 | -17 | -13 | -6 | -33 | -4 | -8 | -35 | -16 | -37 | -20 | -35 | -24 | -35 |  |  |  | 
21 | 25 | CCCCCC=CCC=CCCCCCCCC(=O)NCCOP(=O)(O)OCCN [(3), 2-(Octadeca-9,12-dienoylamino)ethylphosphoryl ethanolamine] | -39 | 0 | -12 | -8 | -1 | -9 | -1 | -8 | -17 | -23 | -38 | -27 | -39 | -35 | -48 |  |  |  | 
24 | 29 | CCCCCC=CCC=CCCCCCCCC(=O)NCCCOP(=O)(O)OCCN [(4), 3-(Octadeca-9,12-dienoylamino)propylphosphoryl ethanolamine] | -29 | 0 | -15 | -12 | -7 | -20 | -2 | -12 | -27 | -22 | -37 | -28 | -41 | -27 | -41 |  |  |  | 

Second part, the compound before the results:

Compound | inhibition at 1250 µg/mL (High renin plasma) [%] | inhibition at 1250 µg/mL (Renin) [%] | Changes of blood pressure after drug withdrawal (renal hypertensive rats [1]; 1st day after withdrawal) [mmHg] | Changes of blood pressure (renal hypertensive rats [1]; [3]) [mmHg] | Changes of blood pressure (renal hypertensive rats [1]; [4]) [mmHg] | Changes of blood pressure after drug withdrawal (renal hypertensive rats [1]; 2nd day after withdrawal) [mmHg] | Changes of blood pressure (renal hypertensive rats [1]; [5]) [mmHg] | Changes of blood pressure (renal hypertensive rats [1]; [6]) [mmHg] | Changes of blood pressure after drug withdrawal (renal hypertensive rats [1]; 3rd day after withdrawal) [mmHg] | Changes of blood pressure (renal hypertensive rats [1]; [7]) [mmHg] | Changes of blood pressure (renal hypertensive rats [1]; [8]) [mmHg] | Changes of blood pressure (renal hypertensive rats [1]; [9]) [mmHg] | Changes of blood pressure (renal hypertensive rats [1]; [10]) [mmHg] | Changes of blood pressure (renal hypertensive rats [1]; [11]) [mmHg] | Changes of blood pressure (renal hypertensive rats [1]; [12]) [mmHg] | Changes of blood pressure (renal hypertensive rats [1]; [13]) [mmHg] | Changes of blood pressure (renal hypertensive rats [1]; [14]) [mmHg] | Changes of blood pressure after drug withdrawal (renal hypertensive rats [2]; 1st day after withdrawal) [mmHg] | Changes of blood pressure (renal hypertensive rats [2]; [3]) [mmHg] | Changes of blood pressure (renal hypertensive rats [2]; [4]) | further results
NCCOP(=O)(O)OCCCNC(=O)COc1ccc(Oc2ccc(Cl)cc2)cc1 [(7), 3-[4-(4'-chlorophenoxy)phenoxyacetylamino]propylphosphoryl ethanolamine] | 52 | 64 |  |  |  |  |  |  |  |  |  |  |  |  |  |  |  | -19 | 0 | -6 mmHg | Changes of blood pressure after drug withdrawal (renal hypertensive rats [2]; 2nd day after withdrawal): -11 mmHg; Changes of blood pressure (renal hypertensive rats [2]; [5]): -3 mmHg; Changes of blood pressure (renal hypertensive rats [2]; [6]): -10 mmHg; Changes of blood pressure after drug withdrawal (renal hypertensive rats [2]; 3rd day after withdrawal): -5 mmHg; Changes of blood pressure (renal hypertensive rats [2]; [7]): -3 mmHg; Changes of blood pressure (renal hypertensive rats [2]; [8]): -18 mmHg; Changes of blood pressure after drug withdrawal (renal hypertensive rats [2]; 4th day after withdrawal): -5 mmHg; Changes of blood pressure (renal hypertensive rats [2]; [9]): -10 mmHg; Changes of blood pressure (renal hypertensive rats [2]; [10]): -19 mmHg; Changes of blood pressure after drug withdrawal (renal hypertensive rats [2]; 5th day after withdrawal): -3 mmHg; Changes of blood pressure (renal hypertensive rats [2]; [11]): -10 mmHg; Changes of blood pressure (renal hypertensive rats [2]; [12]): -21 mmHg; Changes of blood pressure after drug withdrawal (renal hypertensive rats [2]; 6th day after withdrawal): -1 mmHg; Changes of blood pressure (renal hypertensive rats [2]; [13]): -11 mmHg; Changes of blood pressure (renal hypertensive rats [2]; [14]): -25 mmHg; Changes of blood pressure (renal hypertensive rats [2]; [15]): -18 mmHg; Changes of blood pressure (renal hypertensive rats [2]; [16]): -28 mmHg
CC(Oc1ccc(Oc2ccc(Cl)cc2)cc1)C(=O)NCCCOP(=O)(O)OCCN (stereo not drawn) [(8), 3-{α-[4-(4'-chlorophenoxy)phenoxy]propionylamino} propylphosphoryl ethanolamine] | 51 | 67 |  |  |  |  |  |  |  |  |  |  |  |  |  |  |  | -22 | 0 | +4 mmHg | Changes of blood pressure after drug withdrawal (renal hypertensive rats [2]; 2nd day after withdrawal): -12 mmHg; Changes of blood pressure (renal hypertensive rats [2]; [5]): +5 mmHg; Changes of blood pressure (renal hypertensive rats [2]; [6]): -1 mmHg; Changes of blood pressure after drug withdrawal (renal hypertensive rats [2]; 3rd day after withdrawal): -5 mmHg; Changes of blood pressure (renal hypertensive rats [2]; [7]): -6 mmHg; Changes of blood pressure (renal hypertensive rats [2]; [8]): -13 mmHg; Changes of blood pressure after drug withdrawal (renal hypertensive rats [2]; 4th day after withdrawal): +2 mmHg; Changes of blood pressure (renal hypertensive rats [2]; [9]): -10 mmHg; Changes of blood pressure (renal hypertensive rats [2]; [10]): -16 mmHg; Changes of blood pressure after drug withdrawal (renal hypertensive rats [2]; 5th day after withdrawal): +1 mmHg; Changes of blood pressure (renal hypertensive rats [2]; [11]): -10 mmHg; Changes of blood pressure (renal hypertensive rats [2]; [12]): -16 mmHg; Changes of blood pressure after drug withdrawal (renal hypertensive rats [2]; 6th day after withdrawal): +1 mmHg; Changes of blood pressure (renal hypertensive rats [2]; [13]): -9 mmHg; Changes of blood pressure (renal hypertensive rats [2]; [14]): -23 mmHg; Changes of blood pressure (renal hypertensive rats [2]; [15]): -13 mmHg; Changes of blood pressure (renal hypertensive rats [2]; [16]): -25 mmHg

Reference: patent publication US3985875A, “ω-(N-acylamino)alkylphosphoryl ethanolamines, pharmaceutical compositions containing them, and their uses” (Dainippon Pharmaceutical Co., Ltd., priority 1974, dated 1976)
